Earlier results in patent US20210321634A1, “Lactobacillus Acidipiscis, Fermented Soymilk, and Preparation Method and Use Thereof” (Hebei Agricultural University, priority 2020, published 2021).

Columns and labels:
[1] = compared with daidzein and genistein
[2] = compared with daidzein

Row | Compound | DPPH free radical scavenging activity [1] | cardiovascular protective activity [2]
1 | O=C1c2c(O)cc(O)cc2OCC1c1ccc(O)cc1 (stereo not drawn) [DHG, dihydrogenistein] | significantly higher | 
2 | O=C1c2ccc(O)cc2OCC1c1ccc(O)cc1 (stereo not drawn) [DHD, dihydrodaidzein] | significantly higher | significantly higher
